Measurements: patent publication US20130005762A1, “COMBINATION OF DROLOXIFENE AND CLOPIDOGREL” (TCP Innovations Limited, priority 2009, published 2013)
Entries after “also recorded” stand apart in the source; their conditions may differ. Where a name gives a salt, the structure may show the parent alone.

What was measured:
[1] = test system: rat aortic smooth muscle cells; test: TGF-beta Production Stimulator functional assay: suppression of smooth muscle cell proliferation reversible by neutralising anti-TGF-beta1 antibody; type: cell-based, Wistar rat; details: compared side-by-side with Tamoxifen
Description: In order compare Droloxifene with other triphenylethylenes, we have exploited a functional assay for TGF-beta1 activity. Alternative approaches are less suitable for various reasons: it is not possible to directly measure TGF-beta protein production by cultured cells in response to triphenylethylenes because the TGF-beta that is produced remains associated with the cells or the extracellular matrix and is therefore not available for assay (for example, by ELISA) in the conditioned medium from the cultured cells. […] The specificity of such an assay is achieved by comparing the rate of proliferation of the smooth muscle cells in the presence or absence of a validated, highly specific neutralising antibody against TGF-beta (or TGF-beta1, as required).
The cells were prepared by enzyme dispersion of isolated rat aortae exactly as described previously (Grainger et al (1993) Biochem. J. 294(1):109-12 and the references therein). The cells were cultured (37° C.; 5% CO2) in DMEM+10% foetal calf serum (FCS), and subcultured every 4 days at 1:2 dilution, using 0.02% trypsin/EDTA (Gibco). Experiments were performed between the sixth and twentieth subculture.
For the experiments, the cells were subcultured into 12-well cluster plates, and allowed to grow for 24 hrs. […] The cells were then incubated for 72 hrs. All treatment conditions were established in triplicate. One triplicate of cells was counted (see below) at Oh. All other wells were counted at 72 hrs.
The number of cells in each well was determined as follows: the well was washed three times with serum-free DMEM, aspirated and then incubated with 100 μl of trypsin/EDTA solution (Gibco) for 2 minutes at 37° C. Complete release of the cell monolayer was confirmed microscopically. The cell density in portion of this suspension was determined by counting using an Improved Neubauer hameocytometer, ensuring the suspension was uniform by gentle pipetting, prior to sampling. The cell density was converted to the absolute number of cells present in the well by multiplying the number of cells per μl by the total volume of suspension (100 μl). For each condition, the mean number of cells at the end of the experiment was calculated by meaning the number of cells in each well of triplicate.
The extent of proliferation of the cell culture under each condition was determined by subtracting the mean number of cells at time Oh from the mean number of cells under that condition at time 72 h. The amount of TGF-beta1 activity under each condition was determined by subtracting the inhibition of growth achieved in the presence of neutralising anti-TGF-beta1 antibody (AB-101-NA; R&D Systems) from the inhibition of growth achieved in the absence of antibody.

[2] = Effect of co-administered triphenylethylenes on clopidogrel metabolism in vivo (CLP*-acetamide by LC-MS); design: species or system Sprague-Dawley rats; details: oral gavage; for effect on clopidogrel metabolism (in words): 0.1 to 10 mg/kg with 10 mg/kg clopidogrel
Protocol: Adult male Sprague-Dawley rats are dosed with various triphenylethylenes at different doses from 0.1 mg/kg to 10 mg/kg (spanning the likely doses such compounds would be used in man), or with vehicle only, and simultaneously dosed with 10 mg/kg clopidogrel, both by oral gavage. Blood samples are drawn through an in-dwelling jugular catheter at 0.5, 1, 2, 4, 8 and 24 hrs post-dose, and serum is prepared by conventional methods well known in the art.
The level of CLP*, the active metabolite of clopidogrel is then determined in each blood sample by LC-MS by collecting the blood samples in tubes containing the thiol alkylating agent iodeoacetamide. Iodoacetamide reacts with CLP* to generate a stable product which can be detected by LC-MS using standard methodology well known in the art. An authentic sample of the acetamide adduct of CLP* is used to quantify the level of CLP*-acetamide in the sample. […] The concentration of CLP*-acetamide adduct can therefore be assumed to be proportional to the concentration of CLP*. The pharmacokinetics of CLP*-acetamide are then compared under the different conditions, using standard pharmacokinetics models implemented with WinNonLin.

[3] = Meta-analysis of cardiovascular outcomes of women treated with Tamoxifen (Braithwaite et al.); type: in vivo; details: translated from the relative risk
Description: This translates to a 33% reduction in risk, which, if replicated among higher risk groups such as men, would result in at least 10,000 fewer deaths due to myocardial infarction in the UK alone each year, and five times that number in the US.

[4] = analog 0.1 mg/kg with 10 mg/kg clopidogrel
[5] = analog 1 mg/kg with 10 mg/kg clopidogrel
[6] = analog 10 mg/kg with 10 mg/kg clopidogrel

## CC/C(=C(/c1ccc(OCCN(C)C)cc1)c1cccc(O)c1)c1ccccc1 [Droloxifene, (E)-1-(4′-(2-dimethylaminoethoxy)phenyl)-1-(3-hydroxyphenyl)-2-phenylbut-1-ene]
[1]
  TGF-beta Production Stimulator activity (in words): comparable activity
[2]
  effect on clopidogrel metabolism (in words): no effect on clopidogrel metabolism
[2]; listed as droloxifene
  effect on clopidogrel metabolism (in words): no effect on the pharmacokinetics of clopidogrel
[2]; [4]
  % inhibition of CLP*-acetamide Cmax compared to vehicle control: 0%
[2]; [5]
  % inhibition of CLP*-acetamide Cmax compared to vehicle control: −19%
[2]; [6]
  % inhibition of CLP*-acetamide Cmax compared to vehicle control: −7%

## CC/C(=C(\c1ccccc1)c1ccc(OCCN(C)C)cc1)c1ccccc1 [tamoxifen citrate]
[1]
  TGF-beta Production Stimulator activity (in words): no difference

## O=C(c1ccc(OCCN2CCCCC2)cc1)c1c(-c2ccc(O)cc2)sc2cc(O)ccc12 [Raloxifene]
[1]
  TGF-beta Production Stimulator activity (in words): does not have measurable activity
[1]; listed as raloxifene
  TGF-beta Production Stimulator activity (in words): substantially less active; also recorded: does not stimulate the production of TGF-beta1
[2]; [4]
  % inhibition of CLP*-acetamide Cmax compared to vehicle control: −18%
[2]; [5]
  % inhibition of CLP*-acetamide Cmax compared to vehicle control: 11%

## CC/C(=C(\c1ccc(I)cc1)c1ccc(OCCN2CCCC2)cc1)c1ccccc1 [Idoxifene]
[2]; [4]
  % inhibition of CLP*-acetamide Cmax compared to vehicle control: 2%
[2]; [5]
  % inhibition of CLP*-acetamide Cmax compared to vehicle control: 6%
[2]; [6]
  % inhibition of CLP*-acetamide Cmax compared to vehicle control: 48%

## CC/C(=C(\c1ccccc1)c1ccc(OCCN(C)C)cc1)c1ccccc1 [Tamoxifen]
[3]
  reduction in risk of death from myocardial infarction: 33%
